Several values for one entry are separate records, joined by “and”; a condition that tells them apart may be missing. Identical values can stand only once.
Key:
KPC mouse model of PDAC = test: KPC in vivo survival study; conditions: KPC mice; PXS-5505 20 mg kg−1 i.p. daily, gemcitabine 100 mg kg−1 i.p. twice weekly
Excerpt: (§1) The maximal tumor burden allowed by ethics was not exceeded.
as §1

KPC PDAC tumors = test: Necrosis determined by H&E in end-point KPC tumors; type: in vivo; conditions: KPC tumours at endpoint; one value per mouse, 8 mice per cohort scored (Extended Data 6J)
Procedure: All tissues or matrices were fixed in 10% buffered formalin and embedded in paraffin. The 4-μm sections of samples were deparaffinized with xylene and rehydrated in graded ethanol washes. H&E staining and counterstaining were performed on a Leica autostainer.
Extended Data Fig. 6 PXS-5505 in combination with gemcitabine in a KPC model. a. Quantification of proliferating cells (Ki67 positive nuclear staining) in KPC tumors at end point, treated as indicated. 5 fields of view (500 μm × 500 μm) per mouse and 10 mice per cohort were scored. […] Scale bars = 100 μm b. Quantification of percent coverage of αSMA positive staining in KPC tumors at end point, treated as indicated. 3 fields of view (1000 μm × 1000 μm) per mouse and 10 mice per cohort were scored. […] Scale bars = 100 μm c. Quantification of percent coverage of PDGFR-ß positive staining in KPC tumors at end point, treated as indicated. 3 fields of view (1000 μm × 1000 μm) per mouse and 10 mice per cohort were scored. […] Scale bars = 100 μm d. Quantification of pMLC2 positive staining in stromal regions of KPC tumors at end point, treated as indicated. 3 fields of view (500 μm × 500 μm) per mouse and 10 mice per cohort were scored. […] Quantification of tumor vasculature (CD31 positive staining) in KPC tumors at end point, treated as indicated. 3 fields of view (1000 μm × 1000 μm) per mouse and 10 mice per cohort were scored. […]

CD31 = test: Immunohistochemistry of end-point KPC tumors: tumor vasculature; type: in vivo, mouse; conditions: for Quantification of tumour vasculature (CD31 positive staining): Extended Data 6E, KPC tumours at endpoint, individual FOV
Procedure: All tissues or matrices, including patient TMAs, were fixed in 10% buffered formalin and embedded in paraffin. The 4-μm sections of samples were deparaffinized with xylene and rehydrated in graded ethanol washes. For immunohistochemistry, Bond Dewax Solution (AR9222) was used. Antigen retrieval was performed using Bond RX H2(30) protocol: HIER 30 min ER1 (citrate pH 6) OR ER2 (EDTA pH 9) at 100 °C. Slides were quenched in BOND Polymer Refine Detection (Leica Biosystems DS9800). […] Slides were digitized on an Aperio slide scanner and representative areas per tumor acquired and analyzed by researchers blinded to the conditions of the experiment.
Extended Data Fig. 6 PXS-5505 in combination with gemcitabine in a KPC model. a. Quantification of proliferating cells (Ki67 positive nuclear staining) in KPC tumors at end point, treated as indicated. 5 fields of view (500 μm × 500 μm) per mouse and 10 mice per cohort were scored. […] Quantification of percent coverage of αSMA positive staining in KPC tumors at end point, treated as indicated. 3 fields of view (1000 μm × 1000 μm) per mouse and 10 mice per cohort were scored. […] Quantification of percent coverage of PDGFR-ß positive staining in KPC tumors at end point, treated as indicated. 3 fields of view (1000 μm × 1000 μm) per mouse and 10 mice per cohort were scored. […] Quantification of pMLC2 positive staining in stromal regions of KPC tumors at end point, treated as indicated. 3 fields of view (500 μm × 500 μm) per mouse and 10 mice per cohort were scored. […] Quantification of tumor vasculature (CD31 positive staining) in KPC tumors at end point, treated as indicated. 3 fields of view (1000 μm × 1000 μm) per mouse and 10 mice per cohort were scored. […] Quantification of STAT3 activation (pSTAT3 positive nuclear staining) in KPC tumors at end point, treated as indicated. 3 fields of view (1000 μm × 1000 μm) per mouse and 5 mice per cohort were scored. […] Scale bars = 100 μm. g Quantification of macrophage infiltration (F4/80 positive staining) in KPC tumors at end point, treated as indicated. […]

| Structure (SMILES) | Median survival since diagnosis (KPC mouse model of PDAC) [days] | necrosis determined by H&E (KPC PDAC tumors) | Quantification of tumour vasculature (CD31 positive staining) (CD31) | CD31 positivity (CD31; KPC tumors at end point) |
| --- | --- | --- | --- | --- |
| Nc1ccn([C@@H]2O[C@H](CO)[C@@H](O)C2(F)F)c(=O)n1 [Gem, gemcitabine] | 125 | 0 and 7.986 and 6.976 and 4.928 | 0.7299 and 0.7671 and 1.094 and 0.1238 and 0.9491 and 1.4885 and 2.0289 and 0.3988 and 1.306 and 1.1528 and 0.8514 and 0.5685 and 1.3159 and 1.5073 and 0.7452 and 2.699 and 3.9605 and 1.2028 and 1.6599 and 0.7292 and 1.2066 and 0.7182 and 1.9396 and 0.8792 and 0.4356 and 0.528 and 0.6666 and 0.9682 and 1.0035 and 1.0817 | moderately reduce CD31 positivity |
| Cl.Cl.NC/C=C(\F)CS(=O)(=O)c1cccc2cccnc12.O [PXS-5505, (Z)-3-fluoro-4-(quinolin-8-ylsulfonyl)but-2-en-1-amine dihydrochloride monohydrate] | 81 | 0 and 2.201 and 15.496 and 22.429 and 2.215 | 1.4669 and 1.052 and 0.7167 and 1.5204 and 1.7208 and 1.2357 and 2.5692 and 2.5978 and 2.6637 and 1.5089 and 2.7227 and 2.2335 and 3.0895 and 2.1825 and 1.7906 and 0.381 and 0.3483 and 0.8882 and 1.0908 and 1.998 and 0.3729 and 1.0662 and 0.7486 and 0.544 and 1.3597 and 1.732 and 1.5892 and 0.9619 and 1.2706 and 1.8307 | – |

Reference: article PMC10518255, “A first-in-class pan-lysyl oxidase inhibitor impairs stromal remodeling and enhances gemcitabine response and survival in pancreatic cancer” (Nature Cancer, 2023)
